Laboratory results published in patent US20240287074A1, “SALTS AND CRYSTALS” (Kinoxis Therapeutics Pty Ltd, priority 2020, published 2024).
“Also recorded” adds a separate entry of the source. Where a name gives a salt, the structure may show the parent alone.

Experiments:
Format in all cases: physicochemical
[1] = Hydration studies in methanol/water mixtures; details: MeOH/water mixtures, water activity 0.2, 0.6, 0.8, about 24 hours
Experimental: (§1) The following procedure was used during the hydration studies: • Approximately 20 mg of phosphate form 1 (Example 3) and L-tartrate form 1 (Example 5) were weighed into 2 mL glass vials. • Selected methanol/deionized water mixtures (see Table 5) were added to each sample in 100 μL aliquots until a mobile slurry was observed. • The slurries were agitated at ambient temperature for about 24 hours. • The slurries were collected and filtered via centrifugation. • The isolated solids were analyzed by XRPD. • The pH of the mother liquors were recorded.

[2] = 1-week stability studies (XRPD, HPLC); details: 1 week; ambient temperature, light and humidity; 40° C./75% RH; 80° C.
Experimental: The isolated 1-methyl-1,4,5,10-tetrahydropyrazolo[3,4-b][1,5]benzodiazepine freebase was characterized by TG/DTA, DSC, DVS with post-DVS, XRPD, HPLC, ^1H NMR and LC-MS, as per the methods detailed above. The 1-methyl-1,4,5,10-tetrahydropyrazolo[3,4-b][1,5]benzodiazepine freebase was stored at 40° C./75% relative humidity (RH) for 1 week to determine the stability of the material at increased RH and to identify potential hydrate formation.
One-week stability studies were conducted on the freebase (example 1), phosphate form 1 (example 3) and L-tartrate form 1 (example 5) salts using the following procedures: • Approximately 20 mg of each form was weighed into 3×2 mL glass vials. • One vial for each form was stored under the following conditions for 1-week: • 1. Ambient temperature, light and humidity (unsealed vial) • 2. 40° C./75% RH (unsealed vial) • 3. 80° C. (sealed vial) • The samples were collected after 1-week and observations were made. • The solids were analyzed by XRPD and HPLC.

[3] = Salt disproportionation studies in deionized water; details: about 24 hours
Experimental: as §1, with “salt disproportionation” for “hydration”, “Deionized” for “Selected methanol/deionized”, “was” for “mixtures (see Table 5) were”

Cn1ncc2c1Nc1ccccc1NC2 [Phosphate form 1, phosphoric acid addition salt of 1-methyl-1,4,5,10-tetrahydropyrazolo[3,4-b][1,5]benzodiazepine]
change in XRPD pattern [1]: No change in XRPD pattern
hydrate formation [1]: Hydrate formation was not observed; also recorded: No evidence
changes in form by XRPD [2]: no changes in form
changes in purity by HPLC [2]: did not identify any significant changes in purity
change in XRPD pattern ([3]; material slurried in water): No change in XRPD pattern
salt disproportionation ([3]; slurry in deionized water, ambient temperature): Salt disproportionation was not observed; also recorded: No evidence
